Source: article PMC10991105 (Bioresources and Bioprocessing, 2024)

Molecular target: T1, tyrosinase
T1 construct: gene PPO1; tyrosinase of unstated source and supplier
Experiment: L-tyrosine oxidation, absorbance at […] nm
Type: biochemical
Settings: L-tyrosine substrate (0.1 mg/mL stock, 40 μL in 200 μL); PBS; 37 °C; 30 min

- IC50: 35 µM
Structure (SMILES): CCCCCCCCCCCC(=O)OC[C@H]1O[C@H](Oc2ccc(O)cc2)[C@H](O)[C@@H](O)[C@@H]1O [6′-O-lauroylarbutin]
